Patent US9795570B2, “Modulation of macrophage phenotype by emodin” (University of South Carolina, priority 2016, dated 2017)

System: IRF4
Test: IRF4 protein by western blotting
Type: cell-based, mouse
Details: IL4, emodin 0-50 μM, 6 h
Method: Following stimulation with IL4 or LPS+IFNγ with or without emodin for varying periods, macrophages were lysed with cell signaling lysis buffer (Millipore) for whole cell lysates. Cytoplasmic and nuclear extracts were prepared using the Epiquik Nuclear Extraction kit (Epigentek, Farmingdale, N.Y.). Total protein was separated on 4-20% Tris-glycine pre-cast gels (Pierce) and transferred onto Nitrocellulose membranes (Bio-Rad Life Science, Hercules, Calif.). The membranes were then probed with HRP conjugated secondary antibodies, and signals were detected using Pierce ECL Western Blotting Substrate (Pierce).

For `Cc1cc(O)c2c(c1)C(=O)c1cc(O)cc(O)c1C2=O` [emodin], which IRF4 protein production is on record?
The IRF4 protein production was “dose dependently inhibited”.
